≈ marks a conversion by molar mass, not a printed value. Like-named read-outs stand apart in the source and are kept apart here.
Key:
[1] = system: T. brucei; assay: T. brucei growth inhibition; assay type: cell-based, Trypanosoma brucei; details: Trypanosoma brucei; read-out: (D) T. brucei EC50
[2] = system: S. aureus MSSA (ATCC 29213); assay: MIC susceptibility testing; assay type: cell-based, Staphylococcus aureus; details: S. aureus ATCC 29213; for MIC: Staphylococcus aureus, read-out: (F) S. aureus (ATCC 29213) MIC
Description: Media and culture conditions. Mueller Hinton broth (MHB), cation adjusted Mueller Hinton broth (CA-MHB), and Brain Heart Infusion broth (BHI) were purchased from Becton Dickinson (Franklin Lakes, N.J.). Tryptic soy agar (TSA) plates, TSA with 5% sheep blood plates, and CA-MHB with 3% laked horse blood were purchased from Remel (San Diego, Calif.). MHB was used to assay all Staphylococcus aureus strains. CA-MHB was used for Staphylococcus epidermidis, Enterococcus faecalis, Enterococcus faecium, Escherichia coli, and Pseudomonas aeruginosa. CA-MHB supplemented with 3% laked horse blood was used for Streptococcus pneumoniae and Streptococcus pyogenes. Staphylococcus, Enterococcus, Escherichia, and Pseudomonas strains were cultured at 37° C. with ambient air. Streptococcus strains were cultured in 37° C. with 5% CO2. Separate conditions for radiolabeled precursor uptake assays are described below.
Susceptibility testing: Minimum inhibitory concentration (MIC) determinations were performed in triplicate in 96-well round bottom microtiter plates (Corning, Corning N.Y.) as described by the Clinical and Laboratory Standards Institute (CLSI). Serial two-fold dilutions of compounds were added to plates in 50 μL volumes. An additional 50 μL of media containing bacterial cells (1×10^6 CFUs/mL) was then added to each well. Maximum DMSO concentrations were 0.5%. Plates were incubated at 37° C. for at least 18 h before reading the susceptibility result by optical absorbance (OD600) using a BioTek ELx800. The lowest concentration causing ≥90% growth inhibition compared to the untreated control was recorded as the MIC (and also corresponded to the visual MIC). MICs were measured at least twice and the higher value (if different) was recorded herein.

[3] = molecular target: T1, MetRS (T. brucei) (Trypanosoma brucei brucei, UniProt Q38C91); assay: MetRS (T. brucei) enzyme inhibition; assay type: biochemical
T1 sequence (Q38C91 1-773): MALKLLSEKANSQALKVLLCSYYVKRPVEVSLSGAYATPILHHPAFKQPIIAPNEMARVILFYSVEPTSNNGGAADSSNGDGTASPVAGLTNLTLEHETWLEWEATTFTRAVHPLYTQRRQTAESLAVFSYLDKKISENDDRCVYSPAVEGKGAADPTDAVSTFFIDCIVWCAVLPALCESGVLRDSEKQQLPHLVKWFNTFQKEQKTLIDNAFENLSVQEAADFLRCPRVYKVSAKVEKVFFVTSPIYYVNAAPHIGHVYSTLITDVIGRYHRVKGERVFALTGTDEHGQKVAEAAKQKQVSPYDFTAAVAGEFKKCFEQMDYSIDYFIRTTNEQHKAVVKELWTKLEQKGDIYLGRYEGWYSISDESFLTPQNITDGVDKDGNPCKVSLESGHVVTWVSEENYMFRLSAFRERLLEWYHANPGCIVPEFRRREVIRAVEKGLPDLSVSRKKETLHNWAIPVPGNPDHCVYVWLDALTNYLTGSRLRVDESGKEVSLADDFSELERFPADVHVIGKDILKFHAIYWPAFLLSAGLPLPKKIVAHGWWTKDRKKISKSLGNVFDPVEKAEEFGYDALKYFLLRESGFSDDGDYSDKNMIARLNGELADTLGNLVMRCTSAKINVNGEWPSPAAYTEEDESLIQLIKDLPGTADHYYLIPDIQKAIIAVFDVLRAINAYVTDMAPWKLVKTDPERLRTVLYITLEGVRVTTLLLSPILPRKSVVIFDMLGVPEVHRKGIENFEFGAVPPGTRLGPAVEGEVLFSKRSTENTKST

[4] = molecular target: MetRS (C. parvum) (Cryptosporidium parvum, UniProt Q5CVN0); assay: MetRS (C. parvum) enzyme inhibition; assay type: biochemical; details: read-out: (C) MetRS (C. parvum) IC50
Chain of MetRS (C. parvum) (Q5CVN0 entry or part of it): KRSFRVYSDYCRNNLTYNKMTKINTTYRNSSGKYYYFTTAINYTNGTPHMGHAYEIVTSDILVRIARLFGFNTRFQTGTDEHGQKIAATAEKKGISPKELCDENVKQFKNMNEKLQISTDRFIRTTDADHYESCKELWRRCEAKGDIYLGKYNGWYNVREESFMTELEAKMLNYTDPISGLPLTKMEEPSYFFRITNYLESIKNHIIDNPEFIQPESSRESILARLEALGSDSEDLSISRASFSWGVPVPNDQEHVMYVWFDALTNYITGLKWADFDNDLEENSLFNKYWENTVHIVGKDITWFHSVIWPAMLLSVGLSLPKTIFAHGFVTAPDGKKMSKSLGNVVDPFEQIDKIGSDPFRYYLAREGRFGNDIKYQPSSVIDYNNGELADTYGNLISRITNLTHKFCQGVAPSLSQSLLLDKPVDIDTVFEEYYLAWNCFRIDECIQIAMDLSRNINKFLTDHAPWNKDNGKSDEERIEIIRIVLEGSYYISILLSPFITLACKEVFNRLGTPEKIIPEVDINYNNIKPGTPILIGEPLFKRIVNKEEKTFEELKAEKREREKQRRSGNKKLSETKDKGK

[5] = system: T. cruzi; assay: T. cruzi growth inhibition; assay type: cell-based, Trypanosoma cruzi; details: read-out: (E) T. cruzi EC50

Structure (SMILES) | EC50 [1] [nM] | (F) S. aureus (ATCC 29213) MIC [2] [µg/mL] | MIC [2] [µg/mL] | IC50 [3] [nM] | IC50 [4] [nM] | EC50 ([5]; Trypanosoma cruzi) [nM] | EC50 [5] [nM]
CCOc1cc(-c2cccc3nc(Cc4nc5nc(Cl)ccc5[nH]4)cn23)c(Cl)cc1Cl [Compound 2269, 2-({5-chloro-1H-imidazo[4,5-b]pyridin-2-yl}methyl)-5-(2,4-dichloro-5-ethoxyphenyl)imidazo[1,2-a]pyridine] | 102 | 1.44 | 1.77 (≈ 3.74 µM) |  |  |  | 
Oc1cc(-c2cccc3nc(Cc4nc5nc(Cl)ccc5[nH]4)cn23)c(Cl)cc1Cl [Compound 2268, 2,4-dichloro-5-[2-({5-chloro-1H-imidazo[4,5-b]pyridin-2-yl}methyl)imidazo[1,2-a]pyridin-5-yl]phenol] | 186 | 0.345 | 0.69 (≈ 1.55 µM) |  |  |  | 
Clc1ccc(Cc2cn(Cc3nc4ccc(Cl)cc4[nH]3)c(Br)n2)c(Cl)c1 [Compound 2194, 2-({2-bromo-4-[(2,4-dichlorophenyl)methyl]-1H-imidazol-1-yl}methyl)-6-chloro-1H-1,3-benzodiazole] | > 2000 |  |  | > 10000 | > 1000 |  | 
CCn1c(Cc2ccc(Cl)cc2Cl)cn(CCc2nc3ccc(F)nc3[nH]2)c1=O [Compound 2121, 4-[(2,4-dichlorophenyl)methyl]-3-ethyl-1-(2-{5-fluoro-1H-imidazo[4,5-b]pyridin-2-yl}ethyl)-2,3-dihydro-1H-imidazol-2-one] | 1340 |  |  | 41 | 476 |  | 
CCn1c(Cc2ccc(Cl)cc2Cl)cn(C(C)c2nc3ccc(Cl)nc3[nH]2)c1=O (stereo not shown) [Compound 2142, 1-(1-{5-chloro-1H-imidazo[4,5-b]pyridin-2-yl}ethyl)-4-[(2,4-dichlorophenyl)-methyl]-3-ethyl-2,3-dihydro-1H-imidazol-2-one] | 489 |  |  | < 40 | 89.4 |  | 
COc1cc(Cl)c(-c2cccc3nc(Nc4nc5nc(F)ccc5[nH]4)cn23)cc1OC [Compound 2267, 5-(2-chloro-4,5-dimethoxyphenyl)—N-{5-fluoro-1H-imidazo[4,5-b]pyridin-2-yl}imidazo[1,2-a]pyridin-2-amine] | > 2000 |  | > 2 |  |  |  | 
CCn1c(Cc2ccc(OC)cc2Cl)cn(Cc2nc3cnc(Cl)nc3[nH]2)c1=O [Compound 2286, 4-[(2-chloro-4-methoxyphenyl)methyl]-1-[(2-chloro-7H-purin-8-yl)methyl]-3-ethyl-2,3-dihydro-1H-imidazol-2-one] | > 2000 |  |  |  |  |  | 
Fc1ccc2[nH]c(Cc3cn4c(-c5cc(Cl)cc(Cl)c5)cccc4n3)nc2n1 [Compound 2131, 5-(3,5-dichlorophenyl)-2-({5-fluoro-1H-imidazo[4,5-b]pyridin-2-yl}methyl)-imidazo[1,2-a]pyridine] | 197 |  |  | 325 | 806 |  | 
CCOc1ccc(-c2cccc3nc(Cc4nc5nc(Cl)ccc5[nH]4)cn23)c(Cl)c1 [Compound 2164, 2-({5-chloro-1H-imidazo[4,5-b]pyridin-2-yl}methyl)-5-(2-chloro-4-ethoxyphenyl)imidazo[1,2-a]pyridine] | 1910 |  |  | 143 | > 1000 |  | 
COc1ccc(-c2cnc3ccc(NCc4nc5nc(F)ccc5[nH]4)cn23)c(Cl)c1 [Compound 2173, 3-(2-chloro-4-methoxyphenyl)—N-((5-fluoro-1H-imidazo[4,5-b]pyridin-2-yl)methyl)imidazo[1,2-a]pyridin-6-amine] | > 2000 |  |  | 57 | 185 |  | 
Clc1cc(Cl)cc(-c2cccc3nc(Cc4nc5nc(Cl)ccc5[nH]4)cn23)c1 [Compound 2130, 2-({5-chloro-1H-imidazo[4,5-b]pyridin-2-yl}methyl)-5-(3,5-dichlorophenyl)-imidazo[1,2-a]pyridine] | 196 |  |  | 190 | > 1000 |  | 
COc1ccc(-c2c3c(nn2C)CCN(Cc2nc4nc(Cl)ccc4[nH]2)C3)c(Cl)c1 [Compound 2188, 5-((5-chloro-1H-imidazo[4,5-b]pyridin-2-yl)methyl)-3-(2-chloro-4-methoxyphenyl)-2-methyl-4,5,6,7-tetrahydr0-2H-pyrazolo[4,3-c]pyridine] | 808 |  |  | < 40 | 443 |  | 
COc1ccc(-c2cccn3cc(Cc4nc5nc(F)ccc5[nH]4)nc23)c(Cl)c1 [Compound 2148, 8-(2-chloro-4-methoxyphenyl)-2-({5-fluoro-1H-imidazo[4,5-b]pyridin-2-yl}methyl)imidazo[1,2-a]pyridine] | > 2000 |  |  | 60 | 993 |  | 

Continued, values first:

EC50 [1] [nM] | (F) S. aureus (ATCC 29213) MIC [2] [µg/mL] | MIC [2] [µg/mL] | IC50 [3] [nM] | IC50 [4] [nM] | EC50 ([5]; Trypanosoma cruzi) [nM] | EC50 [5] [nM] | Structure (SMILES)
> 2000 |  |  | 1280 | > 1000 |  |  | OCCNc1nc(Cc2ccc(Cl)cc2Cl)cn1Cc1nc2ccc(Cl)cc2[nH]1 [Compound 2196, 2-({1-[(6-chloro-1H-1,3-benzodiazol-2-yl)methyl]-4-[(2,4-dichlorophenyl)methyl]-1H-imidazol-2-yl}amino)ethan-1-ol]
> 2000 |  |  | 63 | > 1000 |  |  | Fc1ccc2[nH]c(Cc3cn4c(-c5ccc(C(F)(F)F)cc5Cl)cccc4n3)nc2n1 [Compound 2127, 5-[2-chloro-4-(trifluoromethyl)phenyl]-2-({5-fluoro-1H-imidazo[4,5-b]pyridin-2-yl}methyl)imidazo[1,2-a]pyridine]
806 |  |  | < 40 | 96.6 |  |  | CCn1c(Cc2ccc(Cl)cc2Cl)cn(C(C)c2nc3nc(F)ccc3[nH]2)c1=O (stereo not shown) [Compound 2143, 4-[(2,4-dichlorophenyl)methyl]-3-ethyl-1-(1-{5-fluoro-1H-imidazo[4,5-b]pyridin-2-yl}ethyl)-2,3-dihydro-1H-imidazol-2-one]
849 |  |  | < 40 | 354 |  |  | COc1cc(Cl)c(-c2cccc3nc(Cc4nc5nc(F)ccc5[nH]4)cn23)cc1Cl [Compound 2133, 5-(2,5-dichloro-4-methoxyphenyl)-2-({5-fluoro-1H-imidazo[4,5-b]pyridin-2-yl}methyl)imidazo[1,2-a]pyridine]
508 |  |  | < 40 | 656 |  |  | COc1cc(Cl)c(-c2cccc3nc(Cc4nc5nc(Cl)ccc5[nH]4)cn23)cc1Cl [Compound 2132, 2-({5-chloro-1H-imidazo[4,5-b]pyridin-2-yl}methyl)-5-(2,5-dichloro-4-methoxyphenyl)imidazo[1,2-a]pyridine]
1780 |  |  | 40 | > 1000 |  |  | FC(F)(F)c1ccc(-c2cccc3nc(Cc4nc5nc(Cl)ccc5[nH]4)cn23)c(Cl)c1 [Compound 2126, 2-({5-chloro-1H-imidazo[4,5-b]pyridin-2-yl}methyl)-5-[2-chloro-4-(trifluoromethyl)phenyl]imidazo[1,2-a]pyridine]
 |  | 0.422 (≈ 0.934 µM) |  |  | 32.2 | 41.4 | COc1ccc(Cc2cn(Cc3nc4nc(F)ccc4[nH]3)c(=O)n2CC(F)F)c(Cl)c1 [Compound 2259, 4-[(2-chloro-4-methoxyphenyl)methyl]-3-(2,2-difluoroethyl)-1-({5-fluoro-1H-imidazo[4,5-b]pyridin-2-yl}methyl)-2,3-dihydro-1H-imidazol-2-one]
< 0.91 |  |  |  |  |  |  | CCn1c(Cc2cc(OC)c(OC)cc2Cl)cn(Cc2nc3nc(Cl)ccc3[nH]2)c1=O [Compound 2275, 1-({5-chloro-1H-imidazo[4,5-b]pyridin-2-yl}methyl)-4-[(2-chloro-4,5-dimethoxyphenyl)methyl]-3-ethyl-2,3-dihydro-1H-imidazol-2-one]
